Measured values taken from patent publication US9873883B2, “Glyphosate resistant plants and associated methods” (Dow AgroSciences LLC, priority 2012, dated 2018).

Tests used:
[1] = target: T1, Mariprofundus ferrooxydans EPSP synthase DGT-14 v1, native wild type (GENBANK ZP_01452683; SEQ ID NO:17) (Mariprofundus ferrooxydans, UniProt Q0EYT4); test: In vitro kinetic assay (inorganic phosphate production, malachite green); type: biochemical; conditions: IC50 (glyphosate)
T1 construct: pET28, N-terminal 6xHis and thrombin site, E. coli, IMAC purified
Procedure: One enzyme that was identified was DGT-14 (GENBANK ACC NO: ZP_01452683) from Manprofundus ferrooxydans. […] One of these enzymes, DGT-11 (SEQ ID NO:5), contains a natural alanine at an analogous position within the EPSP synthase enzyme as that of the G96A mutation which was introduced into the E. coli version of the enzyme.
Site directed mutagenesis was carried out on the synthetic dgt-14 v6 to confirm the role of the alanine that was introduced at the glycine residue of amino acid residue 101. THE QUICK CHANGE II® kit from Stratagene (Santa Clara, Calif.) was used to perform the mutagenesis. The following primers were designed to make the amino acid switch. […]
Cell pellets from 1 L cultures were resuspended in 20-30 mL Buffer A (50 mM HEPES pH 7.5, 150 mM KCl, 2 mM DTT, 1 mM EDTA, 20 mM imidazole, and 5% glycerol). […] Samples were typically diluted 1:50 and the UV-visible spectrum was recorded from 240-700 nm on a Cary50 Bio UV-visible spectrophotometer. A theoretical extinction coefficient was then used to calculate the protein concentration based on the absorbance at 280 nm (ExPASy, Geneva, Switzerland).
The enzyme activities of wild-type (WT) and mutant DGTs were measured by inorganic phosphate (Pi) production in a modified procedure described by Lanzetta et al., (1979). […]

[2] = tested on: T4 Arabidopsis plants containing dgt-14 spiked into wildtype; test: dgt-14 as a selectable marker with glyphosate selection; type: in vivo, Arabidopsis thaliana; conditions: applied 7 and 11 DAP, scored 17 DAP
Procedure: The use of dgt-14 as a selectable marker for glyphosate selection agent is tested with the Arabidopsis transformed plants described above. Approximately 50 T4 generation Arabidopsis seed (homozygous for dgt-14) are spiked into approximately 5,000 wildtype (sensitive to glyphosate) seed. The seeds are germinated and plantlets are sprayed with a selecting dose of glyphosate. Several treatments of glyphosate are compared; each tray of plants receives either one or two application timings of glyphosate in one of the following treatment schemes: 7 DAP (days after planting), 11 DAP, or 7 followed by 11 DAP. Since all plants also contain a glufosinate resistance gene in the same transformation vector, dgt-14 containing plants selected with glyphosate can be directly compared to DSM-2 or pat containing control plants selected with glufosinate.
Glyphosate treatments are applied with a DeVilbiss spray tip as previously described. Transgenic plants containing dgt-14 are identified as “resistant” or “sensitive” 17 DAP. […] Sensitive and resistant plants are counted and the number of glyphosate tolerant plants is found to correlate with the original number of transgenic seed containing the dgt-14 transgene which are planted.

In the case of `O=C(O)CNCP(=O)(O)O` [glyphosate, N-(phosphonomethyl)glycine], the IC50 ([1]; at 60 μM PEP) is reported as 440 µM, the IC50 ([1]; at 1 mM PEP) is reported as greater than 20200 µM and the “effective selection for transgenic plants” value [2] is reported as 26.25-1680 g ae/ha.
